Measured values reported in ChEMBL document CHEMBL3797050, “Erinacine S, a Rare Sesterterpene from the Mycelia of Hericium erinaceus” (2016).
Calls of active or inactive are those of the source. The calls are words filed in the database; no cut-off is given here.

Key:
[1] = tested on: Mus musculus; experiment: Increase in nerve growth factor levels in cerebral cortex of APPswe/PSIdeltaE9 double transgenic C57BL/6J mouse at 30 mg/kg/day administered via oral gavage for 30 days; assay type: functional, organism-based
[2] = tested on: Mus musculus; experiment: Effect on neprilysin levels in cerebral cortex of APPswe/PSIdeltaE9 double transgenic C57BL/6J mouse at 30 mg/kg/day administered via oral gavage for 30 days by Western blot analysis; assay type: functional, organism-based
[3] = tested on: Mus musculus; experiment: Decrease in amyloid plaque burden in cerebral cortex of APPswe/PSIdeltaE9 double transgenic C57BL/6J mouse at 30 mg/kg/day administered via oral gavage for 30 days by AB10 staining based immunohistochemical assay; assay type: functional; parameters: scale not given: the % may be the effect or the level left
[4] = tested on: Mus musculus; experiment: Increase in insulin degrading enzyme in cerebral cortex of APPswe/PSIdeltaE9 double transgenic C57BL/6J mouse at 30 mg/kg/day administered via oral gavage for 30 days by Western blot analysis; assay type: functional

| Structure (SMILES) | Activity [1] | Activity [2] | Activity [3] [%] | Activity [4] [%] |
| --- | --- | --- | --- | --- |
| CC(C)C1=C2C3=CC=C(C=O)C[C@H](O[C@@H]4OC[C@@H](O)[C@H](O)[C@H]4O)[C@]3(C)CC[C@@]2(C)CC1 | inactive | inactive | 40.2 | 130.5 |
| CC(C)C1=C2[C@H]3CCC4=C(O)C(=O)[C@@]5(O)CO[C@H]6O[C@@H]([C@@H]4[C@]65O)[C@]3(C)CC[C@@]2(C)CC1 | inactive | inactive | 38.1 | 141.1 |
